Reference: PubChem BioAssay AID330 (DTP/NCI, 2004)
Values joined by “and” are separate entries in the source; they are usually repeats but may differ in a detail not shown here. Equal values may be shown once. Inconclusive results and toxic doses are left out. Rule for the calls: active = survival T/C of 150% or more; inactive = T/C below 125% in these data.

Tested on: P388 leukemia ip, CD2F1 mice, survival T/C
Test: NCI In Vivo Anticancer Drug Screen. Data for tumor model P388 Leukemia (intraperitoneal) in CD2F1 (CDF1) mice
Details: endpoint: median survival time, higher = longer survival
Outline: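 Mice carrying the transplanted tumor received test compound or vehicle. Survival was recorded in each group, and the value is the treated-group measurement divided by that of the vehicle-treated control group.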

[1] = dose: 50.0 mg/kg/injection, schedule: Q01DX005 (ip), vehicle: saline with Tween-80
[2] = dose: 100.0 mg/kg/injection, schedule: Q01DX005 (ip), vehicle: saline with Tween-80
[3] = dose: 200.0 mg/kg/injection, schedule: Q01DX005 (ip), vehicle: saline with Tween-80
[4] = dose: 50.0 mg/kg/injection, schedule: Q01DX005 (ip), vehicle: Klucel (hydroxypropylcellulose) (HPC)
[5] = dose: 50.0 mg/kg/injection, schedule: Q01DX009 (ip), vehicle: saline with Tween-80
[6] = dose: 100.0 mg/kg/injection, schedule: Q01DX009 (ip), vehicle: saline with Tween-80
[7] = dose: 200.0 mg/kg/injection, schedule: Q01DX009 (ip), vehicle: saline with Tween-80
[8] = dose: 60.0 mg/kg/injection, schedule: Q01DX005 (ip), vehicle: saline with Tween-80
[9] = dose: 120.0 mg/kg/injection, schedule: Q01DX005 (ip), vehicle: saline with Tween-80
[10] = dose: 240.0 mg/kg/injection, schedule: Q01DX005 (ip), vehicle: saline with Tween-80
[11] = dose: 100.0 mg/kg/injection, schedule: Q01DX005 (ip), vehicle: Klucel (hydroxypropylcellulose) (HPC)

Measured: T/C

CC(C)(C)NCC(O)COc1nsnc1N1CCOCC1 (configuration not stated)
inactive: dose: 50.0 mg/kg/injection, schedule: Q01DX009 (ip), vehicle: water 103 % of control | dose: 100.0 mg/kg/injection, schedule: Q01DX009 (ip), vehicle: water 108 % of control | dose: 200.0 mg/kg/injection, schedule: Q01DX009 (ip), vehicle: water 111 % of control

Cc1c(N=Nc2c(S(=O)(=O)O)cc3cc(S(=O)(=O)O)c(N=Nc4c(C)n(C)n(-c5ccccc5)c4=O)c(O)c3c2O)c(=O)n(-c2ccccc2)n1C
inactive: dose: 60.0 mg/kg/injection, schedule: Q01DX005 (ip), vehicle: suspension in saline 101 % of control | dose: 120.0 mg/kg/injection, schedule: Q01DX005 (ip), vehicle: suspension in saline 96 % of control | dose: 240.0 mg/kg/injection, schedule: Q01DX005 (ip), vehicle: suspension in saline 110 % of control

Nc1nnc(Cc2nnc(N)o2)o1
inactive: [1] 101 % of control | [2] 101 % of control | [3] 98 % of control

CC(C)c1cc(=O)c2cc3[nH]c4ccccc4c3cc2[nH]1
inactive: [1] 97 % of control | [2] 87 % of control | [3] 90 % of control

C=C(C[N+](C)(C)C)c1ccc([N+](=O)[O-])cc1
inactive: [4] 102 % of control

O=C(O)CC(CS(=O)CP(=O)(O)O)C(=O)O (configuration not stated)
inactive: dose: 60.0 mg/kg/injection, schedule: Q01DX005 (ip), vehicle: saline 93 % of control | dose: 120.0 mg/kg/injection, schedule: Q01DX005 (ip), vehicle: saline 98 % of control | dose: 240.0 mg/kg/injection, schedule: Q01DX005 (ip), vehicle: saline 95 % of control

Nc1cccc[n+]1CCCCCC[n+]1ccccc1N
inactive: dose: 3.13 mg/kg/injection, schedule: Q01DX009 (ip), vehicle: saline 102 % of control | dose: 6.25 mg/kg/injection, schedule: Q01DX009 (ip), vehicle: saline 103 % of control

Cc1ccc2nc(CC(O)(c3ccccc3)c3ccccc3)ccc2c1
inactive: [5] 110 % of control | [6] 95 % of control | [7] 94 % of control

CC(=O)ON(C(C)=O)C1CCCCC1
inactive: [5] 100 % of control | [6] 97 % of control | [7] 98 % of control

C=C1C(C(=O)OC)=NNc2c(C(N)=O)ncn21
inactive: dose: 25.0 mg/kg/injection, schedule: Q01DX001 (ip), vehicle: saline 101 % of control | dose: 50.0 mg/kg/injection, schedule: Q01DX001 (ip), vehicle: saline 102 % of control | dose: 100.0 mg/kg/injection, schedule: Q01DX001 (ip), vehicle: Klucel (hydroxypropylcellulose) (HPC) 98 % of control | dose: 200.0 mg/kg/injection, schedule: Q01DX001 (ip), vehicle: Klucel (hydroxypropylcellulose) (HPC) 105 % of control | dose: 400.0 mg/kg/injection, schedule: Q01DX001 (ip), vehicle: saline 100 % of control

CC(CN(C)C)OC(=O)C1(c2ccccc2)CCOc2ccccc21 (configuration not stated)
inactive: [8] 108 % of control | [9] 108 % of control | [10] 109 % of control

O=C(O)C1C(C(=O)O)C2C(=O)C=CC1N2Cc1ccccc1 (configuration not stated)
inactive: dose: 12.5 mg/kg/injection, schedule: Q01DX005 (ip), vehicle: Klucel (hydroxypropylcellulose) (HPC) 105 % of control | dose: 25.0 mg/kg/injection, schedule: Q01DX005 (ip), vehicle: Klucel (hydroxypropylcellulose) (HPC) 99 % of control and 116 % of control | [4] 112 % of control and 114 % of control and 115 % of control | [11] 103 % of control and 118 % of control and 122 % of control

CC1CCC2C(C)C3C(CC4C5CCC6CC(O)CCC6(C)C5CCC43CO)N2C1 (configuration not stated)
inactive: [4] 101 % of control | [11] 108 % of control | dose: 200.0 mg/kg/injection, schedule: Q01DX005 (ip), vehicle: Klucel (hydroxypropylcellulose) (HPC) 113 % of control

CN(C)CCCNC(=O)c1ccc2c(c1)C(=O)c1ccccc1C2=O
inactive: dose: 100.0 mg/kg/injection, schedule: Q04DX003 (ip), vehicle: water 107 % of control | dose: 200.0 mg/kg/injection, schedule: Q04DX003 (ip), vehicle: water 115 % of control

CC1CC(c2ccccc2)C(c2ccccc2Cl)C(=O)O1 (configuration not stated)
inactive: dose: 100.0 mg/kg/injection, schedule: Q04DX002 (ip), vehicle: Klucel (hydroxypropylcellulose) (HPC) 101 % of control | dose: 200.0 mg/kg/injection, schedule: Q04DX002 (ip), vehicle: Klucel (hydroxypropylcellulose) (HPC) 96 % of control | dose: 400.0 mg/kg/injection, schedule: Q04DX002 (ip), vehicle: Klucel (hydroxypropylcellulose) (HPC) 96 % of control

NC(Cc1cc([N+](=O)[O-])ccc1CN(CCCl)CCCl)C(=O)O (configuration not stated)
active: dose: 1.88 mg/kg/injection, schedule: Q04DX003 (ip), vehicle: Klucel (hydroxypropylcellulose) (HPC) 189 % of control
inactive: dose: 0.06 mg/kg/injection, schedule: Q01DX009 (ip), vehicle: Klucel (hydroxypropylcellulose) (HPC) 104 % of control | dose: 0.11 mg/kg/injection, schedule: Q04DX003 (ip), vehicle: Klucel (hydroxypropylcellulose) (HPC) 110 % of control | dose: 0.12 mg/kg/injection, schedule: Q01DX009 (ip), vehicle: Klucel (hydroxypropylcellulose) (HPC) 120 % of control | dose: 0.23 mg/kg/injection, schedule: Q04DX003 (ip), vehicle: Klucel (hydroxypropylcellulose) (HPC) 104 % of control | dose: 0.25 mg/kg/injection, schedule: Q01DX009 (ip), vehicle: Klucel (hydroxypropylcellulose) (HPC) 117 % of control | dose: 0.47 mg/kg/injection, schedule: Q04DX003 (ip), vehicle: Klucel (hydroxypropylcellulose) (HPC) 120 % of control | dose: 2.0 mg/kg/injection, schedule: Q01DX009 (ip), vehicle: Klucel (hydroxypropylcellulose) (HPC) 105 % of control | dose: 3.75 mg/kg/injection, schedule: Q04DX003 (ip), vehicle: Klucel (hydroxypropylcellulose) (HPC) 119 % of control | dose: 4.0 mg/kg/injection, schedule: Q01DX009 (ip), vehicle: Klucel (hydroxypropylcellulose) (HPC) 93 % of control | dose: 6.25 mg/kg/injection, schedule: Q01DX001 (ip), vehicle: Klucel (hydroxypropylcellulose) (HPC) 93 % of control | dose: 7.5 mg/kg/injection, schedule: Q04DX003 (ip), vehicle: Klucel (hydroxypropylcellulose) (HPC) 99 % of control | dose: 8.0 mg/kg/injection, schedule: Q01DX009 (ip), vehicle: Klucel (hydroxypropylcellulose) (HPC) 90 % of control | dose: 15.0 mg/kg/injection, schedule: Q04DX003 (ip), vehicle: Klucel (hydroxypropylcellulose) (HPC) 91 % of control | dose: 25.0 mg/kg/injection, schedule: Q01DX001 (ip), vehicle: Klucel (hydroxypropylcellulose) (HPC) 90 % of control

Cc1[nH]c2ccc(N(C)C)cc2c(=O)c1CN(C)Cc1c(C)[nH]c2ccc(N(C)C)cc2c1=O
inactive: [8] 99 % of control | [9] 100 % of control | [10] 100 % of control

COc1cc2nn(-c3ccccc3N)nc2cc1OC
inactive: [8] 106 % of control | [9] 100 % of control | [10] 102 % of control

CC(=O)OCC1OC(n2ccc(N)nc2=O)C(OC(C)=O)C1OC(C)=O (configuration not stated)
active: dose: 100.0 mg/kg/injection, schedule: Q01DX009 (ip), vehicle: saline 162 % of control | dose: 200.0 mg/kg/injection, schedule: Q01DX009 (ip), vehicle: saline 178 % of control

CCCCCOC(=O)c1ccccc1OP(=O)(N(C)C)N(C)C
inactive: dose: 50.0 mg/kg/injection, schedule: Q01DX005 (ip), vehicle: saline 103 % of control | dose: 100.0 mg/kg/injection, schedule: Q01DX005 (ip), vehicle: saline 110 % of control

O=C(/C=C/c1ccc(Cl)cc1)c1ccccc1O
inactive: dose: 25.0 mg/kg/injection, schedule: Q01DX009 (ip), vehicle: saline with Tween-80 98 % of control | [5] 103 % of control | [6] 107 % of control | [7] 100 % of control

N#C/C=C1\C=CC(O)C(O)C1OC1OC(CO)C(O)C(O)C1O (configuration not stated)
inactive: dose: 6.0 mg/kg/injection, schedule: Q01DX009 (ip), vehicle: saline 103 % of control | dose: 12.0 mg/kg/injection, schedule: Q01DX009 (ip), vehicle: saline 103 % of control | dose: 24.0 mg/kg/injection, schedule: Q01DX009 (ip), vehicle: saline 100 % of control | dose: 48.0 mg/kg/injection, schedule: Q01DX009 (ip), vehicle: saline 105 % of control

COc1cccc2c1C(=O)c1c(O)c3c(c(O)c1C2=O)C[C@@](O)(C(=O)CO)C[C@@H]3OC1CC(OC(C)=O)C(OC(C)=O)C(C)O1 (some centres not stated)
inactive: dose: 3.13 mg/kg/injection, schedule: Q04DX003 (ip), vehicle: distilled water + Tween-80 99 % of control and 123 % of control | dose: 6.25 mg/kg/injection, schedule: Q04DX003 (ip), vehicle: distilled water + Tween-80 123 % of control
active: dose: 12.5 mg/kg/injection, schedule: Q04DX003 (ip), vehicle: distilled water + Tween-80 163 % of control | dose: 25.0 mg/kg/injection, schedule: Q04DX003 (ip), vehicle: distilled water + Tween-80 185 % of control and 192 % of control | dose: 50.0 mg/kg/injection, schedule: Q04DX003 (ip), vehicle: distilled water + Tween-80 211 % of control and 269 % of control
